Measured values from patent US20060069132A1, “Azolecarboxamide herbicides” (priority 2004, published 2006).

Columns and labels:
Surinam grass = experiment: Test C pre-/postemergence herbicide test; format: in vivo, Urochloa decumbens; conditions: preemergence
Procedure, shortened: (§1)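 Preemergence: seeds planted and treated with compound in non-phytotoxic solvent with surfactant; postemergence: plants at 2 to 18 cm (1- to 4-leaf stage) sprayed likewise. Kept in greenhouse 12 to 14 days, then visually rated against controls, 0 (no effect) to 100 (complete control).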

corn = experiment: Test C pre-/postemergence herbicide test; format: in vivo, Zea mays; conditions: preemergence
Procedure, shortened: as §1

woolly cupgrass = experiment: Test C pre-/postemergence herbicide test; format: in vivo, Eriochloa villosa; conditions: preemergence
Procedure, shortened: as §1

johnsongrass = experiment: Test C pre-/postemergence herbicide test; format: in vivo, Sorghum halepense; conditions: preemergence
Procedure, shortened: as §1

eastern black nightshade = experiment: Test C pre-/postemergence herbicide test; format: in vivo, Solanum ptycanthum; conditions: preemergence
Procedure, shortened: as §1

[1] = tested on: common (oilseed) sunflower; experiment: Test C pre-/postemergence herbicide test; format: in vivo, Helianthus annuus; conditions: preemergence
Procedure, shortened: as §1

velvetleaf = experiment: Test C pre-/postemergence herbicide test; format: in vivo, Abutilon theophrasti; conditions: preemergence
Procedure, shortened: as §1

[2] = tested on: smallflower umbrella sedge; experiment: Test C flooded paddy test; format: in vivo, Cyperus difformis; conditions: for Plant response rating, Sedge, Umbrella: 500 g ai/ha, visual rating after 12 to 14 days
[3] = 500 g ai/ha, scale 0 to 100 (0 no effect, 100 complete control), visual, 12 to 14 days
[4] = 125 g ai/ha, scale 0 (no effect) to 100 (complete control), visual, 12 to 14 days
[5] = 125 g ai/ha, scale 0 to 100 (0 no effect, 100 complete control)
[6] = 250 g ai/ha, scale of 0 to 100, 0 is no effect, 100 is complete control
[7] = scale 0 to 100 (0 no effect, 100 complete control)

Structure (SMILES)	Plant response rating, Surinam Grass (Surinam grass; 62 g ai/ha, scale 0 to 100)	Plant response rating, Surinam Grass (Surinam grass; 250 g ai/ha, scale 0-100)	Plant response rating, Surinam Grass (Surinam grass; [3])	Plant response rating, Corn (corn; [4])	Plant response rating, Corn (corn; 250 g ai/ha, scale 0-100)	Plant response rating, Corn (corn; [3])	Plant response rating, Cupgrass, Woolly (woolly cupgrass; 62 g ai/ha, scale 0 to 100)	Plant response rating, Cupgrass, Woolly (woolly cupgrass; [4])	Plant response rating, Cupgrass, Woolly (woolly cupgrass; 250 g ai/ha, scale 0-100)	Plant response rating, Cupgrass, Woolly (woolly cupgrass; [3])	Plant response rating, Johnsongrass (johnsongrass; 62 g ai/ha, scale 0 to 100)	Plant response rating, Johnsongrass (johnsongrass; [4])	Plant response rating, Johnsongrass (johnsongrass; 250 g ai/ha, scale 0-100)	Plant response rating, Johnsongrass (johnsongrass; [3])	Plant response rating, Nightshade (eastern black nightshade; 62 g ai/ha, scale 0 to 100)	Plant response rating, Nightshade (eastern black nightshade; [4])	Plant response rating, Nightshade (eastern black nightshade; 250 g ai/ha, scale 0-100)	Plant response rating, Nightshade (eastern black nightshade; [3])	Plant response rating, Sunflower ([1]; 62 g ai/ha, scale 0 to 100)	Plant response rating, Sunflower ([1]; 250 g ai/ha, scale 0-100)	also measured
CCn1nc(C(C)(C)C)cc1C(=O)Nc1cc(C(=S)N(C)C)ccc1F [Compound 294]	85	100	100	60	60	80	55	75	80	85	80	100	100	100	100	100	100	100	30	100	Plant response rating, Corn (corn; 62 g ai/ha, scale 0 to 100): 55; Plant response rating, Sunflower [1, 3]: 100; Plant response rating, Velvetleaf (velvetleaf; 62 g ai/ha, scale 0 to 100): 100; Plant response rating, Velvetleaf (velvetleaf; 250 g ai/ha, scale 0-100): 100; Plant response rating, Velvetleaf (velvetleaf; [3]): 100; Sedge, Umbrella plant response rating ([2]; 62 g ai/ha, scale 0 to 100): 80; Sedge, Umbrella plant response rating [2, 5]: 85; Sedge, Umbrella plant response rating [2, 6]: 90; Plant response rating, Sedge, Umbrella [2, 7]: 90
CCn1nc(C2(C)CC2)cc1C(=O)Nc1cc(C(=O)N(C)C)ccc1F [Compound 299]	75	100	100	25	60	60	50	70	90	100	85	100	100	100	100	100	100	100	10	100	Plant response rating, Sunflower [1, 3]: 100; Plant response rating, Velvetleaf (velvetleaf; 62 g ai/ha, scale 0 to 100): 5; Plant response rating, Velvetleaf (velvetleaf; 250 g ai/ha, scale 0-100): 100; Plant response rating, Velvetleaf (velvetleaf; [3]): 100; Sedge, Umbrella plant response rating ([2]; 62 g ai/ha, scale 0 to 100): 85; Sedge, Umbrella plant response rating [2, 5]: 95; Sedge, Umbrella plant response rating [2, 6]: 95; Plant response rating, Sedge, Umbrella [2, 7]: 95
CCn1nc(C(C)(C)C)cc1C(=S)Nc1cc(C(=S)N(C)C)ccc1F [Compound 305]	50	60	60	40	45	45	20	60	60	70	65	90	95	95	60	90	100	100	0	0	Plant response rating, Corn (corn; 62 g ai/ha, scale 0 to 100): 0; Plant response rating, Sunflower [1, 3]: 50; Plant response rating, Velvetleaf (velvetleaf; 62 g ai/ha, scale 0 to 100): 40; Plant response rating, Velvetleaf (velvetleaf; 250 g ai/ha, scale 0-100): 100; Plant response rating, Velvetleaf (velvetleaf; [3]): 100; Sedge, Umbrella plant response rating ([2]; 62 g ai/ha, scale 0 to 100): 85; Sedge, Umbrella plant response rating [2, 5]: 90; Sedge, Umbrella plant response rating [2, 6]: 90; Plant response rating, Sedge, Umbrella [2, 7]: 90
